Results published in US9808469B2, “Antitumor activity of multi-kinase inhibitors in triple negative breast cancer” (ENTRECHEM, S.L, priority 2014, dated 2017).

Tests used:
Format in all cases: cell-based
[1] = system: MDA-MB-231 cells; test: Microarray analysis of mRNA and RT-PCR of DNA repair genes; conditions: 500 nM, 24 h; confirmed by RT-PCR
Experimental: MDA-MB-231 cells were grown in DMEM with 10% of FBS, and when 70% confluent, cells were treated with 500 nM Formula (III) for 24 h. Total RNA was extracted and purified using the RNeasy Mini Kit (Qiagen). Double-stranded cDNA and biotinylated cRNA were synthesized using a T7-polyT primer and the BioArray RNA labeling kit (Enzo Life Sciences, Farmingdale, N.Y.), respectively. The labeled RNA was fragmented and hybridized to human oligonucleotide arrays (Human Gene ST Arrays) (Affymetrix, Santa Clara, Calif.) according to manufacturers instructions. For the microarray data analysis, Affymetrix CEL files from each of the two microarray hybridization experiments for the two conditions [untreated control and treated with 500 nM Formula (III)] were imported into the dChip software (Dana Farber Cancer Institute, Boston, Mass.). […] The list of genes was analyzed using functional annotation bioinformatics microarray analysis (DAVID), and gene set enrichment analyses (GSEA). […]
Total RNA was extracted from cells with Rneasy Mini Kit (QIAGEN) as recommended by the supplier. cDNAs were synthesized from […] of total RNA by using RevertAid H Minus First Strand cDNA synthesis Kit (Fermentas) in a total volume of […]. […] Samples were analyzed in triplicate and mRNA expression was normalized to GADPH […] and quantified by the comparative cycle threshold (Ct) method. […]

[2] = system: BT549 cells; test: Cell cycle analysis by flow cytometry (propidium iodide); conditions: 500 nM, 24 h
Experimental: (§1) Cell cycle analyses and evaluation of apoptosis were performed by flow cytometry using propidium iodide and Annexin V, respectively.
(§2) For cell cycle analyses, HS578T, BT549 and MDA-MB-231 cells were cultured in 100-mm culture dishes, grown to 70% confluence, and treated with 500 nM Formula (III) for 24 h. Cell monolayers were then incubated in trypsin-EDTA and resuspended in 1 mL of PBS. After three washes with PBS, the cell pellets were resuspended in ice cold 70% ethanol for 2 min and centrifuged 5 min at 1800 rpm. The cell pellets were treated with 1 mL of propidium iodide (PI) staining solution (PBS containing 50 μg/mL of PI, 0.5% Tween 20, 0.1 μg/mL RNase A) (BD Biosciences) and incubated in the dark for 1 h. DNA content and cell cycle analyses were performed by using a FACS canto II flow cytometer and the CellQuest software (BD Biosciences).

[3] = system: HS578T cells; test: as above; conditions: 500 nM, 24 h
Experimental: as §1, §2

C[C@]12O[C@H](C[C@@H](O)[C@H]1O)n1c3ccccc3c3c4c(c5c6ccccc6n2c5c31)C(=O)NC4=O [Formula (III)]
expression of genes involved in DNA repair [1]: increased expression of genes involved in DNA repair
increase of cells in G2/M phase [2]: 22%
increase of cells in G2/M phase [3]: 15%
